# Data from patent US5321035A, “Piperidine derivatives and process for preparation thereof” (Shionogi & Co., Ltd., priority 1992, dated 1994).
# Assays:
# [1] = test system: 7-alkoxycumarin-O-dialkylase; assay: Enzyme Induction Test (liver microsomal 7-alkoxycumarin-O-dialkylase activities after repeated dosing); assay type: in vivo, mouse (male, DS)
# Experimental: Male mice (DS, 5-6 week-old) received intraperitoneally 100 mg/kg of the compound (a) of the present invention or the compound (c) (1-[3-}4-(3,4,-dichlorophenyl)-1,2,5,6-tetrahydropiperidin-1-yl}propylcarbamoyl]-2-oxopyrrolidine) suspended in 5% gum arabic once a day for three days. After 24 hrs from the final administration, the liver was removed from the animal, and liver microsome was prepared by means of centrifugal fractionation. Additional liver microsomes were prepared in the same manner as above by intraperitoneally administering a typical enzyme inducer, phenobarbital (dissolved in saline) or β-naphthoflavone (suspended in sesame oil), to mice. Enzymatic activities of the above liver microsomes on drug metabolism were evaluated by determining their 7-alkoxycumarin-O-dialkylase activities.
# [2] = test system: hippocampus CAI pyramidal cells; assay: Inhibitory effect against delayed necrosis of hippocampus pyramidal cells after cerebral ischemia (bilateral common carotid artery ligation); assay type: in vivo, Mongolian gerbil; settings: for injury (%) in pyramidal cell layer: 30 min before 5 min occlusion, 4th day; for inhibition (%) of injury: vs control
# Experimental: Inhibitory effect against the delayed necrosis of hippocampus CAI pyramidal cells was determined.
# Compound (a) and compound (b) were again used in this experiment. Three to eight male mice (Mongolian gerbil, 11 to 12-week-old, Seiwa Jikken-dobutsuKenkyusyo) were used for one group.
# Each animal was intraperitoneally administered a solution of the test compound (a) or (b) dissolved in distilled water, or only distilled water (for control) at 0.2 ml/100 g weight of the animal. Thirty minutes later, under the halothane anesthesia, bilateral common carotid artery was separated from surrounding tissues and ligated for a period of 5 min with Sugita's artery Klemme. Anesthesia was stopped at the time of artery occlusion. On the 4th day after the operation, each animal was anesthetized with pentobarbital Na (45 mg/kg), and brain was perfused with 4% paraformaldehyde solution and removed. From the brain was prepared a piece of cerebral preparation containing hippocampus. It was placed in Carnoy's fixative overnight for fixation and embedded in paraffin, from which sliced coronal preparations of 10 μm thick were prepared. Each cerebral preparation was stained with hematoxylin-eosin and the rate of injury (%) in pyramidal cell layer extending from paramedian to CA4 was observed using two-dimensional image analyzer (Cosmozon IS, Nicon).
# [3] = test system: [3H]5-HT uptake by synaptosomes; assay: {3H} Serotonin (5-HT) Uptake Inhibition Test in brain synaptosomes; assay type: biochemical, rat (male Slc: Wistar strain); settings: for IC50: 5 nM [3H]5-HT, 5 min at 37° C, rat brain synaptosomes
# Text: (1) Evaluation of Effects on Neurotransmittal Systems {^3 H} Serotonin (5-HT) Uptake Inhibition Test
# Compound (a): a compound of the present invention
# Compound (b): 1-[3-{4-(3,4-dichlorophenyl)-piperidin-1-yl}propylcarbamoyl]-2-oxopyrrolidin (Japanese Patent Publication (KOKAI) No.131155/1989).
# Male Slc: Wistar strain rats (12-week-old, Japan SLC).
# Rats were killed by decapitation and a whole brain except for cerebellum is isolated immediately. The isolated tissue was homogenized in 20 volume of ice-cold 0.32 M sucrose solution by Potter-type homogenizer and centrifuged at 1,000× g for 10 min. The supernatant is centrifuged at 40,000× g for 20 min. The resultant pellet is resuspended in 20 volume of Krebs-Henseleit buffer containing 1 mM ascorbate, 0.17 mM EDTA and 0.08 mM pargyline by Polytron and centrifuged at 40,000× g for 10 min, which procedure was repeated two more times. The finally obtained pellet was resuspended in 20 volume of ice-cold Krebs-Henseleit buffer using Polytron. The resultant suspension was diluted to 1/10 with the same buffer to give a synaptosome sample.
# A mixture of 5 nM [^3 H]5-HT (10 μl), synaptosome sample (480 μl ) and a solution (10 μl ) containing a test compound at a predetermined concentration was incubated for 5 min at 37° C. The reaction was stopped by diluting the mixture with ice-cold Krebs-Henseleit buffer (2.5 ml) and filtering with suction on Whatman GF/C paper. The filter paper was washed three times with ice-cold Krebs-Henseleit buffer (2.5 ml each) and allowed to stand for about 18 hr in Cleasol-1 solution (5 ml). The radioactivity was then measured by means of a liquid scintillation counter. A control experiment was carried out in the same manner as the above using 5 nM [^3 H]5-HT (10 μl ), synaptosome sample (480 μl ) and a solvent (10 μl ) used for dissolving a test compound to obtain blank values of radioactivity. […]
# [4] = mouse, in vivo, ip, 100 mg/kg, 1440 min
# [5] = i.p., compounds (a), (c): 100 mg/kg once a day for three days, control = 1.00
# [6] = i.p., compounds (a), (c): 100 mg/kg once a day for three days, liver microsomes
# [7] = three days, compared with the control
Compound,"deethylation activity (7-alkoxycumarin-O-dialkylase) ([1]; mouse, in vivo, ip, 100 mg/kg)","demethylation activity (7-alkoxycumarin-O-dialkylase) ([1]; mouse, in vivo, ip, 100 mg/kg)","depropylation activity (7-alkoxycumarin-O-dialkylase) ([1]; mouse, in vivo, ip, 100 mg/kg)","deethylation activity, ratio to control (in parentheses) [1, 4]","demethylation activity, ratio to control (in parentheses) [1, 4]","depropylation activity, ratio to control (in parentheses) [1, 4]",injury (%) in pyramidal cell layer ([2]; 12.5 mg/kg i.p.),inhibition (%) of injury ([2]; 12.5 mg/kg i.p.),injury (%) in pyramidal cell layer ([2]; 25.0 mg/kg i.p.),inhibition (%) of injury ([2]; 25.0 mg/kg i.p.),injury (%) in pyramidal cell layer ([2]; 50.0 mg/kg i.p.),inhibition (%) of injury ([2]; 50.0 mg/kg i.p.),IC50 [3],"deethylation activity, ratio to control (in parentheses) [1, 5]","demethylation activity, ratio to control (in parentheses) [1, 5]","depropylation activity, ratio to control (in parentheses) [1, 5]","deethylation activity (7-alkoxycumarin-O-dialkylase) [1, 6]","demethylation activity (7-alkoxycumarin-O-dialkylase) [1, 6]","depropylation activity (7-alkoxycumarin-O-dialkylase) [1, 6]",also measured
"O=c1cc(-c2ccccc2)oc2ccc3ccccc3c12 [β-naphtoflavone, β-naphthoflavone]",5.26 ± 0.28 nmol/min/mg of microsome protein,1.94 ± 0.08 nmol/min/mg of microsome protein,2.97 ± 0.20 nmol/min/mg of microsome protein,5.06,2.04,6.19,–,–,–,–,–,–,–,–,–,–,–,–,–,–
"O=C1CCCN1C(=O)NCCCN1CCC(c2ccc(Cl)c(Cl)c2)CC1 [Compound (a), 1-[3-{4-(3,4-Dichlorophenyl)piperidin-1-yl}-propylcarbamoyl]-2-oxopyrrolidine]",2.59 ± 0.27 nmol/min/mg of microsome protein,2.79 ± 0.33 nmol/min/mg of microsome protein,1.08 ± 0.12 nmol/min/mg of microsome protein,0.98,1.08,0.89,45.9 ± 2.1%,+8.0%,33.6 ± 5.3%,+32.7%,0%,+100%,0.13 µM,–,–,–,–,–,–,"inhibition of delayed necrosis of hippocampus CAI pyramidal cells (in words) ([2]; 50 mg/kg i.p.): completely inhibited; inhibition of delayed necrosis of hippocampus CAI pyramidal cells (in words) ([2]; 12.5 and 25 mg/kg i.p.): significantly inhibited; enzyme induction (in words) ([1]; mouse, in vivo): no enzyme induction was observed; serotonin uptake inhibitory activity (in words) ([3]; compared to compound (b)): much more potent serotonin uptake inhibitory activity"
"1-[3-{4-(3,4-dichlorophenyl)-piperidin-1-yl}propylcarbamoyl]-2-oxopyrrolidin [Compound (b)]",–,–,–,–,–,–,44.0 ± 3.2%,+2.8%,28.1 ± 8.3%,+38.0%,30.7 ± 3.9%,+32.1%,23 µM,–,–,–,–,–,–,–
"CCC1(c2ccccc2)C(=O)NC(=O)NC1=O [phenobalbital, phenobarbital]",–,–,–,–,–,–,–,–,–,–,–,–,–,2.53,2.29,2.20,2.63 ± 0.18 nmol/min/mg of microsome protein,2.18 ± 0.13 nmol/min/mg of microsome protein,1.06 ± 0.06 nmol/min/mg of microsome protein,–
O=C1CCCN1C(=O)NCCCN1CC=C(c2ccc(Cl)c(Cl)c2)CC1 [Compound (c)],–,–,–,–,–,–,–,–,–,–,–,–,–,1.99,1.61,2.20,2.29 ± 0.18 nmol/min/mg of microsome protein,1.83 ± 0.19 nmol/min/mg of microsome protein,0.99 ± 0.55 nmol/min/mg of microsome protein,"enzyme induction (in words) ([1]; mouse liver, three days): carcinogenic enzyme induction of β-naphthoflavone type (3-methylcholanthrene type); increase in deethylation and depropylation activities [1, 7]: 1.99-2.20 times; increase in demethylation activity [1, 7]: 1.61 times"
